{
  "source": "patent US12421282B2",
  "about": "“Compositions and methods for the treatment of metabolic and liver disorders” (priority 2021, dated 2025)",
  "key": {"[1]": {"molecular_target": "T1, human recombinant GIP receptor (Homo sapiens, UniProt P48546)", "T1 sequence (P48546 22-466)": "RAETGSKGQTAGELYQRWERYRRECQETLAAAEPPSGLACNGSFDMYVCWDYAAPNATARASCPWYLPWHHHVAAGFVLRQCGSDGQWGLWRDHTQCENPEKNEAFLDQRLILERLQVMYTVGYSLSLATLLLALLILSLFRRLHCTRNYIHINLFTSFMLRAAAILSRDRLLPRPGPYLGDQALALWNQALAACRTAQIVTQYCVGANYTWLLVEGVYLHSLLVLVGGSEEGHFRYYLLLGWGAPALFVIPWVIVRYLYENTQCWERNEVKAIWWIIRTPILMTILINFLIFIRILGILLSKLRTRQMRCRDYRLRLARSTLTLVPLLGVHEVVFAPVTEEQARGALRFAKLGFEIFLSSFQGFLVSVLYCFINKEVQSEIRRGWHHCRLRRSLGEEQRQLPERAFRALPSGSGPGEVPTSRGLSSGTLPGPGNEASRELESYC", "test": "TagLite binding assay, GIP receptor, without and with 2% HSA"}, "[2]": {"set-up": "species or system cynomolgus monkeys", "details": "cynomolgus monkey, in vivo, sc, 0.2 mg/kg", "procedure": "Subcutaneous (SC) dosing of the compounds in a vehicle of 0.1% bovine serum albumin in phosphate buffered saline solution was performed with male cynomolgus monkeys. […] Samples were obtained at 1, 4, 8, 12, 24, 48, 72, 96, 120, 168, 192, 240 and 336 hours after the single dose was administered."}, "[3]": {"molecular_target": "human recombinant GLP-1 receptor (Homo sapiens, UniProt P43220)", "sequence (P43220 24-463)": "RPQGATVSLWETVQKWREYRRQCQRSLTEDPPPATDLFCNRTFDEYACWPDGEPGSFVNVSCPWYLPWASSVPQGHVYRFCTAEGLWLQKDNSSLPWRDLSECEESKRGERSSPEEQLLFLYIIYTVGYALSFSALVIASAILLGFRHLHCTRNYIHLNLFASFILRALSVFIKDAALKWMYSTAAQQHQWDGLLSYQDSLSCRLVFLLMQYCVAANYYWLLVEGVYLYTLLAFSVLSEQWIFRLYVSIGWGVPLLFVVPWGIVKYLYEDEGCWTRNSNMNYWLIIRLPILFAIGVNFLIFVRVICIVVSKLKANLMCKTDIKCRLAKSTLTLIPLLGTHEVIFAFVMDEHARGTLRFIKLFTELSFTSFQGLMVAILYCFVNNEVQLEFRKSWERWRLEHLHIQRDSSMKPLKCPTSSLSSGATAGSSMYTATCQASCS", "test": "TagLite binding assay, GLP-1 receptor, without and with 2% HSA"}, "[4]": {"details": "2% human serum albumin, read-out: GIP receptor IC50 2% HSA"}, "[5]": {"details": "no HSA, read-out: GIP receptor IC50 No HSA"}, "[6]": {"details": "2% human serum albumin, read-out: GLP-1 receptor IC50 2% HSA"}, "[7]": {"details": "no HSA, read-out: GLP-1 receptor IC50 No HSA"}},
  "note": "Read-outs that look alike come from different tables or passages of the source. *1 amine or outer side, *2 acyl side, *3 side chain or, on linkers, in order; H or OH if unused. Where a SMILES comes first, the peptide text is derived from it. Side-chain parts run from the residue outwards. [ ]: non-standard residue; d: D form. The star is where a group is joined. Nonadecanoyl(19-PO3H2) = O=C(CCCCCCCCCCCCCCCCCCP(=O)(O)O)*; γGlu = O=C(O)[C@H](CCC(=O)[*:2])N[*:1]; AEEA = NCCOCCOCC(=O)O; Aib = CC(C)(N)C(=O)O",
  "data": [
    {"smiles": "CC[C@H](C)[C@H](NC(=O)[C@H](CC(C)C)NC(=O)[C@H](Cc1c[nH]c2ccccc12)NC(=O)[C@H](CCC(N)=O)NC(=O)[C@@H](NC(=O)[C@H](Cc1ccccc1)NC(=O)[C@H](C)NC(=O)[C@H](CCC(N)=O)NC(=O)[C@H](CCC(N)=O)NC(=O)[C@H](C)NC(=O)[C@@H](NC(=O)[C@H](CCCCNC(=O)COCCOCCNC(=O)COCCOCCNC(=O)CC[C@H](NC(=O)CCCCCCCCCCCCCCCCCCP(=O)(O)O)C(=O)O)NC(=O)[C@H](CC(=O)O)NC(=O)[C@H](CC(C)C)NC(=O)C(C)(C)NC(=O)[C@@H](NC(=O)[C@H](CO)NC(=O)[C@H](Cc1ccc(O)cc1)NC(=O)[C@H](CC(=O)O)NC(=O)[C@H](CO)NC(=O)[C@@H](NC(=O)[C@H](Cc1ccccc1)NC(=O)[C@@H](NC(=O)CNC(=O)[C@H](CCC(=O)O)NC(=O)C(C)(C)NC(=O)[C@@H](N)Cc1ccc(O)cc1)[C@@H](C)O)[C@@H](C)O)[C@@H](C)CC)[C@@H](C)CC)C(C)C)C(=O)N[C@@H](C)C(=O)NCC(=O)NCC(=O)N1CCC[C@H]1C(=O)N[C@@H](CO)C(=O)N[C@@H](CO)C(=O)NCC(=O)N[C@@H](C)C(=O)N1CCC[C@H]1C(=O)N1CCC[C@H]1C(=O)N1CCC[C@H]1C(=O)N[C@@H](CO)C(N)=O", "note": "[Compound 15] (H-Y[Aib]EGTFTSDYSI[Aib]LDK([AEEA-AEEA-γGlu-Nonadecanoyl(19-PO3H2)])IAQQAFVQWLIAGGPSSGAPPPS-NH2)", "values": [
      {"measurement": "IC50", "setting": "[1]; [4]", "value": 807, "unit": "nM"},
      {"measurement": "IC50", "setting": "[1]; [5]", "value": 110, "unit": "nM"},
      {"measurement": "AUC(0-inf)", "setting": "[2]", "value": 185, "unit": "µg·h/mL"},
      {"measurement": "AUC(0-t)", "setting": "[2]", "value": 182, "unit": "µg·h/mL"},
      {"measurement": "Cmax", "setting": "[2]", "value": 2520, "unit": "ng/mL"},
      {"measurement": "Tmax", "setting": "[2]", "value": 9.33, "unit": "h"},
      {"measurement": "half-life", "setting": "[2]", "value": 60, "unit": "h"},
      {"measurement": "IC50", "setting": "[3]; [6]", "value": 3830, "unit": "nM"},
      {"measurement": "IC50", "setting": "[3]; [7]", "value": 347, "unit": "nM"}
    ]},
    {"smiles": "CC[C@H](C)[C@H](NC(=O)[C@H](CC(C)C)NC(=O)[C@H](Cc1c[nH]c2ccccc12)NC(=O)[C@H](CCC(N)=O)NC(=O)[C@@H](NC(=O)[C@H](Cc1ccccc1)NC(=O)[C@H](C)NC(=O)[C@H](CCCCNC(=O)COCCOCCNC(=O)COCCOCCNC(=O)CC[C@H](NC(=O)CCCCCCCCCCCCCCCCCCP(=O)(O)O)C(=O)O)NC(=O)[C@H](CCC(N)=O)NC(=O)[C@H](CO)NC(=O)[C@@H](NC(=O)[C@H](CCCCN)NC(=O)[C@H](CC(=O)O)NC(=O)[C@H](CC(C)C)NC(=O)C(C)(C)NC(=O)[C@@H](NC(=O)[C@H](CO)NC(=O)[C@H](Cc1ccc(O)cc1)NC(=O)[C@H](CC(=O)O)NC(=O)[C@H](CO)NC(=O)[C@@H](NC(=O)[C@H](Cc1ccccc1)NC(=O)[C@@H](NC(=O)CNC(=O)[C@H](CCC(=O)O)NC(=O)C(C)(C)NC(=O)[C@@H](N)Cc1ccc(O)cc1)[C@@H](C)O)[C@@H](C)O)[C@@H](C)CC)[C@@H](C)CC)C(C)C)C(=O)N[C@@H](C)C(=O)NCC(=O)NCC(=O)N1CCC[C@H]1C(=O)N[C@@H](CO)C(=O)N[C@@H](CO)C(=O)NCC(=O)N[C@@H](C)C(=O)N1CCC[C@H]1C(=O)N1CCC[C@H]1C(=O)N1CCC[C@H]1C(=O)N[C@@H](CO)C(N)=O", "note": "[Compound 24] (H-Y[Aib]EGTFTSDYSI[Aib]LDKISQK([AEEA-AEEA-γGlu-Nonadecanoyl(19-PO3H2)])AFVQWLIAGGPSSGAPPPS-NH2)", "values": [
      {"measurement": "IC50", "setting": "[1]; [4]", "value": 11400, "unit": "nM"},
      {"measurement": "IC50", "setting": "[1]; [5]", "value": 1160, "unit": "nM"},
      {"measurement": "AUC(0-inf)", "setting": "[2]", "value": 348, "unit": "µg·h/mL"},
      {"measurement": "AUC(0-t)", "setting": "[2]", "value": 302, "unit": "µg·h/mL"},
      {"measurement": "Cmax", "setting": "[2]", "value": 2130, "unit": "ng/mL"},
      {"measurement": "Tmax", "setting": "[2]", "value": 22.7, "unit": "h"},
      {"measurement": "half-life", "setting": "[2]", "value": 111, "unit": "h"},
      {"measurement": "mean half life longer compared to tirzepatide", "setting": "[2]", "value": "at least 50%"},
      {"measurement": "IC50", "setting": "[3]; [6]", "value": 6830, "unit": "nM"},
      {"measurement": "IC50", "setting": "[3]; [7]", "value": 686, "unit": "nM"}
    ]},
    {"smiles": "CC[C@H](C)[C@H](NC(=O)[C@H](CCCCN)NC(=O)[C@H](CC(=O)O)NC(=O)[C@H](CC(C)C)NC(=O)[C@H](Cc1ccccc1)NC(=O)[C@@H](NC(=O)[C@H](CO)NC(=O)[C@H](Cc1ccc(O)cc1)NC(=O)[C@H](CC(=O)O)NC(=O)[C@H](CO)NC(=O)[C@@H](NC(=O)[C@H](Cc1ccccc1)NC(=O)[C@@H](NC(=O)CNC(=O)[C@H](CCC(=O)O)NC(=O)C(C)(C)NC(=O)[C@@H](N)Cc1ccc(O)cc1)[C@@H](C)O)[C@@H](C)O)[C@@H](C)CC)C(=O)N[C@@H](C)C(=O)N[C@@H](CCC(N)=O)C(=O)N[C@@H](CCCCNC(=O)COCCOCCNC(=O)COCCOCCNC(=O)CC[C@H](NC(=O)CCCCCCCCCCCCCCCCCCP(=O)(O)O)C(=O)O)C(=O)N[C@@H](C)C(=O)N[C@@H](Cc1ccccc1)C(=O)N[C@H](C(=O)N[C@@H](CC(N)=O)C(=O)N[C@@H](Cc1c[nH]c2ccccc12)C(=O)N[C@@H](CC(C)C)C(=O)N[C@H](C(=O)N[C@@H](C)C(=O)NCC(=O)NCC(=O)N1CCC[C@H]1C(=O)N[C@@H](CO)C(=O)N[C@@H](CO)C(=O)NCC(=O)N[C@@H](C)C(=O)N1CCC[C@H]1C(=O)N1CCC[C@H]1C(=O)N1CCC[C@H]1C(=O)N[C@@H](CO)C(N)=O)[C@@H](C)CC)C(C)C", "note": "[Compound 21] (H-Y[Aib]EGTFTSDYSIFLDKIAQK([AEEA-AEEA-γGlu-Nonadecanoyl(19-PO3H2)])AFVNWLIAGGPSSGAPPPS-NH2)", "values": [
      {"measurement": "IC50", "setting": "[1]; [4]", "value": 5280, "unit": "nM"},
      {"measurement": "IC50", "setting": "[1]; [5]", "value": 561, "unit": "nM"},
      {"measurement": "AUC(0-inf)", "setting": "[2]", "value": 54, "unit": "µg·h/mL"},
      {"measurement": "AUC(0-t)", "setting": "[2]", "value": 49.4, "unit": "µg·h/mL"},
      {"measurement": "Cmax", "setting": "[2]", "value": 339, "unit": "ng/mL"},
      {"measurement": "Tmax", "setting": "[2]", "value": 48, "unit": "h"},
      {"measurement": "half-life", "setting": "[2]", "value": 90.5, "unit": "h"},
      {"measurement": "mean half life longer compared to tirzepatide", "setting": "[2]", "value": "at least 50%"},
      {"measurement": "IC50", "setting": "[3]; [6]", "value": 1100, "unit": "nM"},
      {"measurement": "IC50", "setting": "[3]; [7]", "value": 144, "unit": "nM"}
    ]}
  ]
}
